Converted amounts (≈) assume the structure as drawn. Where two headings read alike, the source gives them in different places.
What was measured:
Type in all cases: cell-based
[1] = test system: Enterobacterales overproducing AmpC; test: Broth microdilution susceptibility of isolates overexpressing AmpC
Method: (§1) Frozen-form broth microdilution panels were manufactured by JMI Laboratories and contained cation-adjusted Mueller-Hinton broth. Quality assurance was performed by sterility checks, colony counts, and testing CLSI recommended quality control reference strains.

[2] = test system: P. aeruginosa isolates that overproduced AmpC; test: as above
Method: as §1

[3] = test system: AmpC production in Enterobacterales; test: AmpC induction (nitrocefin hydrolysis after drug exposure); conditions: tebipenem/imipenem except for C. koseri and S. marcescens
Method: (§2) AmpC induction was determined as follows. Baseline MIC values were determined by broth microdilution method, as described above, for 9 Gram-negative isolates with basal expression of ampC. These isolates were cultured overnight on blood agar plates. A standardized inoculum made from fresh overnight plate cultures was added to flasks containing 50 mL of Luria-Bertani (LB) broth and incubated by shaking at 37° C. to OD600 of 0.3. […] These cultures were incubated under shaking conditions. A 40 mL aliquot of bacterial cultures was sampled at time 0 and 2 hours after drug exposures. Each sample aliquot was harvested by centrifugation and the supernatant was discarded.
(§3) Protein crude extract preparations were made in 200 μL of BugBusterR (Novagen, Darmstadt, Germany) per manufacturer instructions and cell debris was removed by centrifugation. Protein concentrations were determined in each crude extract by standard methodologies.
(§4) AmpC induction was measured by the intensity of β-lactamase hydrolytic activity against 0.1 mM nitrocefin in 0.1 M phosphate buffer at pH 7.0 using spectrophotometry at 482 nm (Δ absorbance/minute/mg of protein). The drug exposure conditions that caused a >4-fold increase in hydrolysis activity compared to the baseline were subjected to postinduction experiments. Briefly, cells were grown under the same conditions as before and tested for susceptibility by broth microdilution.

[4] = test system: AmpC production in P. aeruginosa; test: as above
Method: as §2, §3, §4

[5] = test system: Methicillin-susceptible Staphylococcus aureus (MSSA); test: Broth microdilution against Gram-positive clinical isolates
Method: (§5) The purpose of this study was to investigate the in vitro activity of tebipenem and comparator agents, including ertapenem and meropenem, against a recent collection of Gram-positive isolates associated with clinical infections. The susceptibility of 580 Gram-positive organisms were tested, including: Methicillin-susceptible Staphylococcus aureus (MSSA, 489 isolates), Methicillin-susceptible Staphylococcus epidermidis (MSSE, 31), other methicillin-susceptible coagulase-negative staphylococci (MSCONS, 29), and Vancomycin-susceptible Enterococcus faecalis (31). Bacterial species were identified by JMI Laboratories using standard microbiology methods and matrix-assisted laser desorption ionization-time of flight mass spectrometry (Bruker Daltonics, Bremen, Germany). The isolates were collected in 2018 and 2019 as part of the SENTRY surveillance program and selected to be representative of these species with 45.0% from the United States, 44.3% from Europe, 5.3% from the Asia-Pacific region, and 5.3% from Latin America. Isolates are primarily from pneumonia in hospitalized patients (498 isolates; 85.9%), urinary tract infections (42 isolates; 7.2%), and bloodstream infections (38 isolates; 6.6%). Isolates were tested in a central laboratory (JMI Laboratories) for antimicrobial susceptibility using the CLSI M07 (2018) reference broth microdilution method. JMI Laboratories produced frozen-form 96-well panels and used cation-adjusted Mueller-Hinton broth (CA-MHB) as the testing medium. All categorical interpretations used CLSI M100 (2021) and EUCAST v10.0 (2021) breakpoint criteria, where published. Quality control organisms include Escherichia coli ATCC 25922, Escherichia coli ATCC 35218, Enterococcus faecalis ATCC 29212, Pseudomonas aeruginosa ATCC 27853, and Staphylococcus aureus ATCC 29213 were tested concurrently with clinical isolates.

[6] = test system: Methicillin-susceptible Staphylococcus epidermidis (MSSE); test: as above
Method: as §5

[7] = test system: Vancomycin-susceptible Enterococcus faecalis; test: as above; conditions: E. faecalis; for MIC90: Enterococcus faecalis, 31 isolates
Method: as §5

[8] = test system: other methicillin-susceptible coagulase-negative staphylococci (MSCONS); test: as above
Method: The purpose of this study was to investigate the in vitro activity of tebipenem and comparator agents, including ertapenem and meropenem, against a recent collection of Gram-positive isolates associated with clinical infections. The susceptibility of 580 Gram-positive organisms were tested, including: […] Bacterial species were identified by JMI Laboratories using standard microbiology methods and matrix-assisted laser desorption ionization-time of flight mass spectrometry (Bruker Daltonics, Bremen, Germany). […] Isolates were tested in a central laboratory (JMI Laboratories) for antimicrobial susceptibility using the CLSI […] (2018) reference broth microdilution method. JMI Laboratories produced frozen-form 96-well panels and used cation-adjusted Mueller-Hinton broth (CA-MHB) as the testing medium. […] Quality control organisms include Escherichia coli ATCC 25922, Escherichia coli ATCC 35218, Enterococcus faecalis ATCC 29212, Pseudomonas aeruginosa ATCC 27853, and Staphylococcus aureus ATCC 29213 were tested concurrently with clinical isolates.

[9] = test system: methicillin-susceptible staphylococci, including MSSA, MSSE, and other MSCONS; test: Broth microdilution against Gram-positive clinical isolates, summary
Method: as §5, with “JMI Laboratories produced frozen-form 96-well panels and used cation-adjusted Mueller-Hinton broth (CA-MHB) as the testing medium. All categorical interpretations used CLSI M100 (2021) and EUCAST v10.0 (2021) breakpoint criteria, where published. Quality control organisms include Escherichia coli ATCC 25922, Escherichia coli ATCC 35218, Enterococcus faecalis ATCC 29212, Pseudomonas aeruginosa ATCC 27853, and Staphylococcus aureus ATCC 29213 were tested concurrently with clinical isolates.” left out

Enterobacterales (ENT) = test: Broth microdilution against US UTI pathogens 2019-2020; conditions: for % susceptible; CLSI: cefuroxime: oral breakpoint
Method: (§6) This study assessed the in vitro activity of tebipenem and comparator agents against Enterobacterales (ENT) responsible for UTIs in the US during 2019-2020. A total of 3,576 ENT recovered from urine samples during the 2019-2020 STEWARD Surveillance Program were included in the study. Isolates were collected from medical centers in all 9 US Census Regions and were centrally tested for susceptibility by reference broth microdilution method. MIC interpretation was performed based on CLSI criteria.

E. coli [10] = test: Susceptibility of E. coli from urinary tract infections, 18 EU countries 2020 (STEWARD)
Method: The study assessed the prevalence of resistance and evaluated the activity of oral tebipenem (TBP) and comparators against EC from urinary tract infections.
Results were interpreted using EUCAST criteria. […] ESBL phenotypes were determined by CLSI criteria and sequenced to identify CTX-M-15 genotype and clonal complex ST131.

E. coli [11] = test: Broth microdilution against US UTI pathogens 2019-2020; conditions: E. coli (2,339); for % susceptible; CLSI: cefuroxime: oral breakpoint
Method: as §6

K. pneumoniae = test: as above; conditions: K. pneumoniae (511); for % susceptible; CLSI: cefuroxime: oral breakpoint
Method: as §6

P. mirabilis = test: as above; conditions: P. mirabilis (235); for % susceptible; CLSI: cefuroxime: oral breakpoint
Method: as §6

[12] = P. aeruginosa overproducing AmpC
[13] = Staphylococcus aureus, 489 isolates
[14] = Staphylococcus epidermidis, 31 isolates

Compound	MIC50 [1] [µg/mL]	MIC90 [1] [µg/mL]	MIC50 ([1]; Enterobacterales (36)) [μ/ml]	MIC90 ([1]; Enterobacterales (36)) [μ/ml]	MIC range ([1]; Enterobacterales (36)) [μ/ml]	MIC range ([2]; P. aeruginosa (32)) [μ/ml]	effect of exposure on production of AmpC [3]	effect of exposure on production of AmpC [4]	MIC90 [7] [µg/mL]	prevalence of resistant phenotype (E. coli [10]; all E. coli) [%]	% susceptible; CLSI (E. coli [11])	% susceptible; CLSI (Enterobacterales (ENT); All (3,567))	% susceptible; CLSI (K. pneumoniae)	% susceptible; CLSI (P. mirabilis)	susceptibility (% S) [8] [%]	CLSI %1 ([1]; Enterobacterales (36)) [%]	CLSI % R ([1]; Enterobacterales (36)) [%]	CLSI % S ([1]; Enterobacterales (36)) [%]	CLSI % R ([2]; P. aeruginosa (32)) [%]	CLSI % S ([2]; P. aeruginosa (32)) [%]	also measured
C[C@@H](O)[C@H]1C(=O)N2C(C(=O)O)=C(SC3CN(C4=NCCS4)C3)[C@H](C)[C@H]12 [Tebipenem, tebipenem]	0.03 (≈ 0.0782 µM)	0.25 (≈ 0.652 µM)	0.03	0.25	0.015 to 1	2 to 8	increased production of AmpC	increased the production of AmpC	1 (≈ 2.61 µM)												concentration inhibiting all isolates ([1]; Enterobacterales overproducing AmpC): ≤ 1 µg/mL; MIC50 [2, 12]: 4 µg/mL (≈ 10.4 µM); MIC90 [2, 12]: 4 µg/mL (≈ 10.4 µM); MIC90 fold lower than ertapenem [5]: 8 fold; MIC50 [5, 13]: 0.015 µg/mL (≈ 0.0391 µM); MIC90 [5, 13]: 0.03 µg/mL (≈ 0.0782 µM); MIC90 fold lower than ertapenem [6]: 32 fold; MIC50 [6, 14]: 0.008 µg/mL (≈ 0.0209 µM); MIC90 [6, 14]: 0.015 µg/mL (≈ 0.0391 µM); MIC90 fold lower than ertapenem [7]: 16 fold; MIC90 fold lower than meropenem [7]: at least 2 fold; concentration inhibiting all isolates [7]: ≤ 1 mg/L; MIC90 fold lower than ertapenem [8]: 32 fold; MIC50 ([8]; 29 isolates): 0.015 µg/mL (≈ 0.0391 µM); MIC90 ([8]; 29 isolates): 0.03 µg/mL (≈ 0.0782 µM); MIC50 and MIC90 values, range over species groups [9]: 0.015 to 0.03 µg/mL; activity fold greater than ertapenem [9]: 16- to 32 fold; MIC90 (Enterobacterales (ENT); against ENT, EC, and KPN): 0.015 to 0.06 µg/mL (≈ 0.0391 to 0.156 µM)
C[C@H]1COc2c(N3CCN(C)CC3)c(F)cc3c(=O)c(C(=O)O)cn1c23 [Levofloxacin, levofloxacin]										20.6	(75.7) %	(79.4) %	(87.1) %	(71.8) %							Susceptibility rate [7]: 80.6%
trimethoprim-sulfamethoxazole [TMP-SMX]										30.1	(69.2) %	(73.9) %	(79.8) %		83.9						MIC50 (E. coli [11]): ≤ 120 µg/mL; MIC90 (E. coli [11]): > 4000 µg/mL; MIC50 (Enterobacterales (ENT); All (3,567)): ≤ 120 µg/mL; MIC90 (Enterobacterales (ENT); All (3,567)): > 4000 µg/mL; MIC50 (K. pneumoniae): ≤ 120 µg/mL; MIC90 (K. pneumoniae): > 4000 µg/mL; MIC50 (P. mirabilis): ≤ 120 µg/mL; MIC90 (P. mirabilis): > 4000 µg/mL
C[C@@H](O)[C@H]1C(=O)N2C(C(=O)O)=C(S[C@@H]3CN[C@H](C(=O)N(C)C)C3)[C@H](C)[C@H]12 [Meropenem, meropenem]	0.03 (≈ 0.0782 µM)	0.12 (≈ 0.313 µM)	0.03	0.12	≤0.015 to 1	0.12 to 2			> 1							0.0	0.0	100.0	0.0	100.0	MIC90 (E. coli [10]; Escherichia coli, all E. coli (764) from UTIs): 0.03 µg/mL (≈ 0.0782 µM); Susceptibility rate (E. coli [10]; all E. coli, EUCAST criteria): 100%; CLSI %1 ([2]; P. aeruginosa (32)): 0.0%
CC[C@H]1OC(=O)[C@H](C)[C@@H](O[C@H]2C[C@@](C)(OC)[C@@H](O)[C@H](C)O2)[C@H](C)[C@@H](O[C@@H]2O[C@H](C)C[C@H](N(C)C)[C@H]2O)[C@](C)(O)C[C@@H](C)C(=O)[C@H](C)[C@@H](O)[C@]1(C)O [erythromycin]															54.8						Susceptibility rate [5]: 65.6%; Susceptibility rate [6]: 54.8%
CC(C)(O/N=C(\C(=O)N[C@@H]1C(=O)N2C(C(=O)[O-])=C(C[n+]3ccccc3)CS[C@H]12)c1csc(N)n1)C(=O)O [Ceftazidime]							did not seem to affect production of AmpC	increased the production of AmpC			(89.3) %	(88.1%)	(86.1) %	(98.7) %		11.4	60.0	28.6	71.9	15.6	MIC50 ([1]; Enterobacterales (36), read-out: MIC50): 32 µg/mL (≈ 58.5 µM); MIC90 ([1]; Enterobacterales (36), read-out: MIC90): > 32 µg/mL; susceptibility (Enterobacterales (ENT); against ENT, EC, and KPN): 86.1-89.3%; MIC90 (Enterobacterales (ENT); against ENT, EC, and KPN, read-out: MIC90): 8 to 16 µg/mL (≈ 14.6 to 29.3 µM); % susceptible; CLSI (P. mirabilis; listed as CAZ): 98.7%
